Results reported in patent publication US4421768A, “Fluorinated diamino-heptene and-heptyne derivatives” (Merrell Toraude et Compagnie, priority 1982, dated 1983).
Counter-ions that a name gives are not always drawn. Like-named read-outs stand apart in the source and are kept apart here.

Biological target: T1, Ornithine decarboxylase (ODC) (Rattus norvegicus, UniProt P09057)
T1 construct: prepared from the livers of rats which have been injected with thioacetamide; from tissue; host or cells: liver of thioacetamide-injected rats, purified about ten fold by acid treatment at pH 4.6
T1 sequence (P09057 1-461): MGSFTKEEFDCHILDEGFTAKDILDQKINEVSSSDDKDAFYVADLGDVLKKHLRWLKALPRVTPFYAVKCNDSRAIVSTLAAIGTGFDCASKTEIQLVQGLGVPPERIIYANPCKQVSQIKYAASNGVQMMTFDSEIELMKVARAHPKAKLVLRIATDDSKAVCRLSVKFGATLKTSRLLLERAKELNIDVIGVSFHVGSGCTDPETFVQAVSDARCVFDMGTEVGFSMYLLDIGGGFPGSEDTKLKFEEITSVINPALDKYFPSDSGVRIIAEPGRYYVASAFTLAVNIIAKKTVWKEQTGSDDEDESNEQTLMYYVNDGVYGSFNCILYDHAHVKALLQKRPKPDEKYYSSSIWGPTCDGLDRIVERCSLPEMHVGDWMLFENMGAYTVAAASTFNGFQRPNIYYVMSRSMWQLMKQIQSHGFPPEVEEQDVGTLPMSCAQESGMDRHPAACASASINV
Test: In vitro inhibition of ornithine decarboxylase (ODC) prepared from livers of thioacetamide-injected rats (time-dependent inactivation, 14CO2 release)
Type: biochemical
Procedure: Ornithine decarboxylase (ODC) is prepared from the livers of rats which have been injected with thioacetamide (150 mg/kg of body weight) 18 hrs before sacrifice, and is purified about ten fold by acid treatment at pH 4.6 as described by Ono et al (Biochem. Biophys. Acta 284, 285 (1972)). The stock solution of ODC is comprised of protein (16 mg/mL), sodium phosphate buffer (30 mM, pH 7.1), dithiothreitol (5 mM) and pyridoxal phosphate (0.1 mM). The specific activity of this stock solution is 0.12 nmol of CO2 /min per mg of protein. For a typical experiment 320 μl of this stock solution are mixed at time 0 with 80 μl of a solution of the inhibitor in water and incubated at 37°. At different times 50 μl aliquots are transferred into a 1-mL assay medium containing sodium phosphate (30 mM, pH 7.1), dithiothreitol (5 mM), pyridoxal phosphate (0.1 mM), L-ornithine (0.081 μmol), and DL-[1-^14 C] ornithine (0.043 μmol, 58 Ci/mol, Amersham) in a closed vessel in which a filter paper moistered with 50 μl hyamine hydroxide (1 M) is fitted. The reaction is allowed to proceed for 60 min at 37° C. and then terminated by addition of 0.5 ml of 40% trichloroacetic acid. After an additional 30 min the CO2 absorbed on the filter paper is counted in a standard scintillation cocktail, KI (apparent dissociation constant) and .tau.50 (half-life, at infinite concentration of inhibitor are calculated according to the method of Kitz and Wilson (J. Biol. Chem., 237, 3245 (1962)).
When tested according to the above-described procedure, the compounds of Examples I and 2 gave the results shown below. Half-life (t1/2) at 10 μM is also set forth below.

SMILES	Ki (rat liver ODC, 37°, pH 7.1, calculated by method of Kitz and Wilson, read-out: KI (apparent dissociation constant)) [µM]	T50 (.tau.50, half-life at infinite concentration of inhibitor) (rat liver ODC, 37°, pH 7.1, infinite concentration of inhibitor, method of Kitz and Wilson) [min]	t1/2 (half-life at 10 μM) (rat liver ODC, 37°, pH 7.1, inhibitor 10 μM) [min]	Ki [µM]
C#CC(N)CCC(N)CF.Cl.Cl (stereo not shown) [Example 1, 1-FLUORO-2,5-DIAMINO-6-HEPTYNE DIHYDROCHLORIDE]	50	3.7	22	
C#CC(N)CCC(N)C(F)F (stereo not shown) [Example 2, 1,1-DIFLUORO-2,5-DIAMINO-6-HEPTYNE, DIHYDROCHLORIDE]				1500
